ChEMBL document CHEMBL1201862, “PubChem BioAssay data set” (2004)
Active and inactive are the calls of the source.

Assays:
[1] = target: T1, Tyrosine-protein phosphatase non-receptor type 22 (Homo sapiens, UniProt Q9Y2R2); assay: LYP1 Fluorescent Assay using OMFP substrate for In Vitro dose response studies. [Related pubchem assays (depositor defined):AID1779, AID1784, AID435024]
T1 sequence (Q9Y2R2 whole entry): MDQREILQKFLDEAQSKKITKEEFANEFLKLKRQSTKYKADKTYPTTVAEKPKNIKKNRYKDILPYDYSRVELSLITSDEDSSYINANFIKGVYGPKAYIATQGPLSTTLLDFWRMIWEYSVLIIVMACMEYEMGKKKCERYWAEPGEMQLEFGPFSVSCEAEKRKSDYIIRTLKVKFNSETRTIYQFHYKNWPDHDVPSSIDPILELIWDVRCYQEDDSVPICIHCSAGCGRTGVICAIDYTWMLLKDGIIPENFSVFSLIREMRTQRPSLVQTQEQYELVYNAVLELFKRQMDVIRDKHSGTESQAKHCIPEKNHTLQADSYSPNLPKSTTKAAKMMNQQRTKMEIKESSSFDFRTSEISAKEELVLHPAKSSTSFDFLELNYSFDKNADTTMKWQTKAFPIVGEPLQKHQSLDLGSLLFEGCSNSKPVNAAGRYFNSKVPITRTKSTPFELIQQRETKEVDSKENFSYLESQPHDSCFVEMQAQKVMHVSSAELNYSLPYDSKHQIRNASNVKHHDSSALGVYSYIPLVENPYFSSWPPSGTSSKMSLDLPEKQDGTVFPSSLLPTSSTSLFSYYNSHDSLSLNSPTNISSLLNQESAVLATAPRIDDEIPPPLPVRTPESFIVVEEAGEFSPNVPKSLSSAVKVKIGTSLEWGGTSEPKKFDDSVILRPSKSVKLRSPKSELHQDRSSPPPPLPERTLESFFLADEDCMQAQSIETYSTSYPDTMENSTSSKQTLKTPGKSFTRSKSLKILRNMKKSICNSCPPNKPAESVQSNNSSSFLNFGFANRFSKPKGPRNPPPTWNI

[2] = target: T2, Tyrosine-protein phosphatase non-receptor type 7 (Homo sapiens, UniProt P35236); assay type: functional
T2 sequence (P35236 whole entry): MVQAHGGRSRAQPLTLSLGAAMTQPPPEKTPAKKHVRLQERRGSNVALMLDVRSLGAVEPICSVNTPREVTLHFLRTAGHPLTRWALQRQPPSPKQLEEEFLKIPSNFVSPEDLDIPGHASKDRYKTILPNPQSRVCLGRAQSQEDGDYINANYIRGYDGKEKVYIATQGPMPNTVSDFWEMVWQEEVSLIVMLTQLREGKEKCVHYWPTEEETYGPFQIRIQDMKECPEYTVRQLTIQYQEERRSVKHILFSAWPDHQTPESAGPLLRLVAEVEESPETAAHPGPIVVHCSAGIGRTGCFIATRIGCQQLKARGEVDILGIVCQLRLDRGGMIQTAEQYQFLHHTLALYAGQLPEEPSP

[3] = target: Serine/threonine-protein phosphatase PP1-alpha catalytic subunit (Homo sapiens, UniProt P62136); assay: inhibition of protein phosphatase 1 activity – biochemical, fluorescence, dose response (AID 2403);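 further: phosphatase turnover of OMFP into fluorescent 3-O-methylfluorescein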
[4] = target: Guanyl-specific ribonuclease T1 (Aspergillus oryzae (strain ATCC 42149 / RIB 40), UniProt P00651); assay: inhibition of ribonuclease T1 activity – biochemical, fluorescence polarization, 1536-well, counter-screen for TPT1 inhibitor project, dose response (AID 2167)
[5] = target: T2, Tyrosine-protein phosphatase non-receptor type 7; assay: HTS HePTP Fluorescent Assay using OMFP substrate for In Vitro dose response studies. [Related pubchem assays (depositor defined):AID1059, AID1077, AID1784, AID2068, AID2085, AID435032, AID521]; assay type: functional
[6] = target: Likely tRNA 2'-phosphotransferase (Candida albicans (strain SC5314 / ATCC MYA-2876) (Yeast), UniProt Q5A7N4); assay: inhibition of Candida TPT1 enzyme activity – biochemical, fluorescence polarization, dose response (AID 2160)
[7] = target: T1, Tyrosine-protein phosphatase non-receptor type 22; assay: PTPN22 lymphoid phosphatase activity blockers – biochemical, fluorescence intensity, uHTS (AID 1779)
[8] = target: T3, Serine/threonine-protein phosphatase (Homo sapiens, UniProt Q9BPW0); assay: Counterscreen for inhibitors of PP1: fluorescence-based biochemical high throughput dose response assay to identify inhibitors of Protein Phosphatase 5 (PP5). [Related pubchem assays: 2034 (Summary (PP5 inhibitors)), 1987 (PP5 inhibitors in singlate), 2235 (PP1 inhibitors in singlate)]
T3 sequence (Q9BPW0 whole entry): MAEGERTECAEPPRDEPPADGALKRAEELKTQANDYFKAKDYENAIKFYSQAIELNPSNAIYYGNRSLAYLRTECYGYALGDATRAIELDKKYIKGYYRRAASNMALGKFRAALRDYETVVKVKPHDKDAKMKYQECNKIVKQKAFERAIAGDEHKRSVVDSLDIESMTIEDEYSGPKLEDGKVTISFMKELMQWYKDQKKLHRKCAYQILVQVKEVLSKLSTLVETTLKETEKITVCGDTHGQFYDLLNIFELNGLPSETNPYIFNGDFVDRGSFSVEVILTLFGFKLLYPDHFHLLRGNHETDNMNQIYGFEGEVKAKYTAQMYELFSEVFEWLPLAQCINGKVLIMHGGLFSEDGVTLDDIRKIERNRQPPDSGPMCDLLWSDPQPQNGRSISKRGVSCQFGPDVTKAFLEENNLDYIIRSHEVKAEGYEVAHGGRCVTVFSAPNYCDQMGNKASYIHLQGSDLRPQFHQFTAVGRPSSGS

[9] = target: Peroxisome proliferator-activated receptor gamma/Nuclear receptor corepressor 2 (Homo sapiens, UniProt P37231+Q9Y618); assay: Counterscreen for NR2E3 inverse agonists: TR-FRET-based biochemical high throughput dose response assay to identify inverse agonists of the interaction between peroxisome proliferator-activated receptor gamma (PPARg) and nuclear receptor co-repressor 2 (NCOR2).; assay type: functional
[10] = target: Photoreceptor-specific nuclear receptor (Homo sapiens, UniProt Q9Y5X4); assay: ligands suppressing NR2E3 nuclear receptor activity – biochemical, TR-FRET, dose response (AID 463256); assay type: functional
[11] = target: T1, Tyrosine-protein phosphatase non-receptor type 22; assay type: functional
[12] = target: T1, Tyrosine-protein phosphatase non-receptor type 22; assay type: functional; remark: listed apart in the source
[13] = target: 26S proteasome non-ATPase regulatory subunit 14 (Homo sapiens, UniProt O00487); assay: inhibition of proteasome subunit RPN11 – biochemical, fluorescence polarization, uHTS hits, confirmation (AID 602368); assay type: functional
[14] = target: 72 kDa type IV collagenase (Homo sapiens, UniProt P08253); assay: Dose Response validation of uHTS RPN11 inhibitor hits using a MMP-2 Fluorescence assay.; assay type: functional
Prothrombin = Prothrombin (Bos taurus, UniProt P00735); assay: thrombin protease inhibitors – biochemical, fluorescence polarization, uHTS hits, dose response (AID 602369); assay type: functional
Major prion protein = Major prion protein (Homo sapiens, UniProt P04156); assay type: functional, cell-based
[15] = target: T4, Delta-type opioid receptor (Homo sapiens, UniProt P41143); assay: HTS Image-Based Screen for Antagonists of the DOR Receptor. [Related pubchem assays (depositor defined):AID1777, AID1785, AID1786, AID2133]; assay type: functional
Mu-type opioid receptor [16] = target: T5, Mu-type opioid receptor (Homo sapiens, UniProt P35372); assay: HTS Image-Based Screen for Agonists of the MOR Receptor. [Related pubchem assays (depositor defined):AID1777, AID1785, AID1786, AID2133]; assay type: functional
[17] = target: T4, Delta-type opioid receptor; assay: HTS Image-Based Screen for Agonists of the DOR Receptor. [Related pubchem assays (depositor defined):AID1777, AID1786, AID2133]; assay type: functional
[18] = target: T6, Kappa-type opioid receptor (Homo sapiens, UniProt P41145); assay type: functional
[19] = target: T6, Kappa-type opioid receptor; assay type: functional; remark: listed apart in the source
[20] = target: Voltage-dependent T-type calcium channel subunit alpha-1H (Homo sapiens, UniProt O95180); assay type: functional;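 further: channel activity triggered by adding a high calcium stimulation buffer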
[21] = target: T6, Kappa-type opioid receptor; assay: SAR analysis of small molecule agonists of the kappa opioid receptor via a luminescent beta-arrestin assay. [Related pubchem assays (depositor defined):AID1777, AID1786, AID1966, AID2133, AID2136, AID2348, AID2352, AID2357, AID2359, AID2370, AID2420, AID2478, AID2491, AID2492, AID2493, AID2497, AID2498, AID2500, AID449737, AID488822, AID488842]; assay type: functional
Mu-type opioid receptor [22] = target: T5, Mu-type opioid receptor; assay: mu opioid receptor activators, image-based, SAR follow-up (AID 2352); assay type: functional
[23] = target: T4, Delta-type opioid receptor; assay: DOR agonists, SAR follow-up, image-based (AID 2370); assay type: functional
[24] = target: T6, Kappa-type opioid receptor; assay: kappa opioid receptor blockers, image-based, SAR follow-up (AID 2348); assay type: functional
Mu-type opioid receptor [25] = target: T5, Mu-type opioid receptor; assay: mu opioid receptor blockers – image-based, SAR follow-up (AID 2420); assay type: functional;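 further: compounds added before stimulation of receptor with agonist DAMGO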
[26] = target: T6, Kappa-type opioid receptor; assay: kappa opioid receptor activation potency – imaging, image-based, SAR follow-up (AID 2359); assay type: functional
[27] = target: T4, Delta-type opioid receptor; assay: delta opioid receptor blockers – image-based, SAR follow-up (AID 2357); assay type: functional

In the case of `COc1ccc(Cl)cc1C(=O)Nc1cccc(-c2ccc3nncn3n2)c1`, the IC50 [1] is reported as > 99 µM (inactive), the IC50 [2] is reported as 48.7 µM (active) and the IC50 [3] is reported as 6.56 µM (active). For the same compound, the IC50 [4] was 7.18 µM (active), the IC50 [5] was 37.9 µM (active) and the IC50 [6] was 5.93 µM (active). The IC50 [7] was 50.8 µM (active), the IC50 [8] was > 67 µM (not active) and the IC50 [9] was 5.06 µM (active). The IC50 [10] was 2.86 µM (active), the IC50 [11] was 16 µM (active) and the IC50 [12] was 38.5 µM (active). For the same compound, the IC50 [13] was 12 µM (active), the IC50 [14] was 8.37 µM (active) and the IC50 (Prothrombin) was 30.2 µM (active). For the same compound, the IC50 (Major prion protein) was 9.03 µM (active) and the IC50 (cells) was > 138 µM (inactive).
In the case of `COc1cc(Cl)c(C)cc1NC(=O)CSc1nnc(-c2ccccn2)n1Cc1ccco1`, the IC50 [15] is reported as > 32 µM (inactive), the EC50 (Mu-type opioid receptor [16]) is reported as > 32 µM (inactive) and the EC50 [17] is reported as > 32 µM (inactive). The EC50 [18] was 20.3 µM, the EC50 [19] was 11.9 µM and the EC50 [20] was 7.53 µM (active). The EC50 [21] was > 10 µM (inactive), the EC50 (Mu-type opioid receptor [22]) was > 32 µM (inactive) and the EC50 [23] was > 32 µM (inactive). The IC50 [24] was > 32 µM (inactive), the IC50 (Mu-type opioid receptor [25]) was > 32 µM (inactive) and the EC50 [26] was 16.3 µM (inactive). The IC50 [27] was > 32 µM (inactive).
